{"source": "patent US8791155B2", "about": "“Chroman derivatives” (Edison Pharmaceuticals, Inc., priority 2003, dated 2014)", "assay_type_in_all_cases": "cell-based", "key": {"[1]": {"tested_on": "dopaminergic neuronal cell line", "assay": "High glutamate-induced oxidative stress assay (HGOS)", "details": "Mus musculus; 30 mM glutamate, 16 hrs; read-out: EC50, protection against HGOS cell injury and cell death", "text": "Protection against redox stress can be evaluated in cell culture using high glutamate induced oxidative stress (HGOS) in mouse dopaminergic cell lines. The cytotoxic effect of glutamate is not due to excitotoxicity, as this cell line is devoid of inotropic glutamate receptors. Rather, the glutamate-induced toxicity of dopaminergic cells is associated with an inhibition of cystine transport which subsequently leads to depletion of intracellular glutathione (GSH) levels (Murphy T. H., et al. Neuron 2, 1547-1558, 1989), activation of neuronal 12-lipoxygenase (Li, Y. et al., Neuron 19, 453-463, 1997), increased ROS production (Tan S. et al., J. Cell Biol. 141, 1423-1432, 1998) and elevated intracellular Cat^2+ (Li, Y. et al., see supra). Some molecules were measured for their ability to protect cells against glutamate-induced stress and the assay is detailed in Examples.\nThis procedure was used to induce high glutamate-induced oxidative stress (HGOS) in a dopaminergic neuronal cell line. Using this assay the potency and efficacy of test articles against HGOS neuronal cell injury and cell death was established in a high throughput manner.\n• Dopaminergic neuronal cell lines • DMEM-No Glucose (Life Technologies Cat #11966-025) • L-glutamine (Life Technologies Cat #25030-081) • L-glutamic acid, monosodium salt (Sigma Cat #G5889) • D-glucose (Sigma Cat #G-6151) • 10×HBSS buffer (pH 7.4) (950 ml Pyrogen-free water, 2.44 g/L MgCl2.6H20, 3.73 g/L KCl, 59.58 g/L Hepes, 58.44 g/L NaCl, 1.36 g/L KH2PO4, 1.91 g/L CaCl2.2H2O and pH to […] with HCl) • Cell Tracker Green fluorescent dye (Molecular Probes, Cat #2925). Prepare a 5NM solution in pre-warmed HBSS just prior to use. • Sterile 96-well plates precoated with poly-D-lysine (Corning Catalog #3665) • 96-well deep well mother plate, DyNA Block 1000 (VWR Catalog #40002-008) Neuronal Cells\nThe cells were seeded into 96-well plates at a density of 2000 per well and left to grow for 72 hours in a 33° C. incubator with 5% CO2 in air atmosphere. The passage number of the cells for each assay experiment were no later than p11 in order to minimize experimental variation.\nAll compounds were dissolved in DMEM-No Glu containing 1 mM glucose, 30 mM glutamate and 1× Pen/Strep. DMEM-No Glu with 1 mM glucose and 1× P/S was used as the negative control, DMEM-No Glucose with 1 mM glucose, […] glutamate was used as a positive control and 100 NM Glutathione was added to the positive control as a standard. All of the procedures for this involving the making and dilution of compounds were performed using aseptic conditions and with minimal light.\nThe plates were removed from the incubator and examined under the microscope for morphological appearance and density. Using an aseptic technique and an 8-channel aspirator the media was carefully removed from the cells and replaced with 200 μI of 1×HBSS. This was done as quickly as possible to prevent the cells drying out. The plates were then placed in the humidified 37° C. incubators of the Biomek 2000 Side Loader. Four plates were washed at a time so as to minimize the time that the cells were sitting in 1×HBSS prior to addition of the compound test solution. Experimental Setup\nThe Beckman Biomek workstations were used to load the compounds and controls from the mother plates onto the cell plates that were prewashed with HBSS under sterile conditions. The plates were incubated in the upper HTS incubator at 37° C. in 5% CO2 for exactly 16 hrs. The following day, using the Beckman Biomek workstations, the plates were removed from the incubator. Using Cell Tracker Addition, the compounds were removed from the plates, washed once with […] of pre-warmed 1×HBSS and then 100 μL of 5 μM Cell Tracker Green was added to each well. The plates were incubated at 37° C. for 30 min to allow the dye to enter the cell and be cleaved by the esterases. […]"}, "FRDA fibroblasts": {"tested_on": "FRDA fibroblasts", "assay": "FRDA fibroblast assay for protection from oxidative stress (BSO)", "details": "Homo sapiens, preincubation 24 h before 1 mM BSO, read-out: EC50, reduced cell death in FRDA fibroblasts compared to untreated FRDA fibroblasts", "text": "A cellular assay using FRDA-patient derived fibroblasts (as described by Jauslin, M L et al, Human Molecular Genetics 11; 3055-3063 (2002)); was used to determine the protective effects of the test compounds by analyzing survival of dermal fibroblasts taken from FRDA patients and unaffected normal donors under conditions of partial GSH depletion. Exposure of FRDA fibroblasts to BSO (L-buthionine (S,R)-sulfoximine) under conditions of restricted selenium causes depletion of cellular glutathione (GSH) and severe plasma membrane damage leading to cell death. Preincubation with the test compounds before the addition of BSO was used to determine if they could protect FRDA cells from BSO-mediated cell death.\nPrimary fibroblasts were derived from donors with a molecular diagnosis of FRDA and control donors with no mitochondria) disease. Lines F2, C2 and C3 were obtained from Coriell Cell Repositories (Camden, N.J., USA; catalog nos GM04078, GM 08402 and GM08399, respectively). All cell types were diagnosed at the molecular level for intronic GAA triplet repeat length in the frataxin gene using a PCR-based method, according to methods known in the art. […] The cells were seeded in 96-well plates at a density of 4000 cells per 100 pI in growth medium consisting of 25% (v/v) M199 EBS and 64% (v/v) MEM EBS without phenol red (Bioconcept, Allschwil, Switzerland) supplemented with 10% (v/v) fetal calf serum (PAA Laboratories, Linz, Austria), 100 U/ml penicillin, 100 μg/ml streptomycin (PAA Laboratories, Linz, Austria), 10 μg/ml insulin (Sigma, Buchs, Switzerland), 10 ng/ml EGF (Sigma, Buchs, Switzerland), 10 ng/ml bFGF (PreproTech, Rocky Hill, N.J., USA) and 2 mM glutamine (Sigma, Buchs, Switzerland). The cells were incubated in the presence of the various test compounds for 24 h before addition of 1 mM BSO (L-buthionine (S,R)-sulfoximine).\nCell viability was measured after the first signs of toxicity appeared in the BSO-treated controls (typically after 16-48 h). The cells were stained for 60 min at room temperature in PBS with 1.2 μm calceinAM and 4 pm ethidium homodimer (Live/Dead assay, Molecular Probes, Eugene, Oreg., USA). Fluorescence intensity was measured with a Gemini Spectramax XS spectrofluorimeter (Molecular Devices, Sunnyvale, Calif., USA) using excitation and emission wavelengths of 485 and 525 nm, respectively."}, "[2]": {"tested_on": "IL-1β release from a mouse microglial cell line", "assay": "Interleukin-1β microglial cell assay (LPS / IFN gamma)", "details": "LPS (10 μg/ml) and IFN gamma (10 ng/ml), 24 hours, read-out: EC50, inhibition of IL-1 beta induction", "experimental": "This assay measures the release of IL-1β from a mouse microglial cell line following an inflammatory challenge with LPS and interferon-gamma. The ability of test articles to inhibit microglial cell activation and IL-1β release is determined by co-incubation of the test article with the inflammatory challenge.\nMouse microglial cells were seeded in poly-D-lysine coated 96-well plates at a density of 10,000 cells/well and allowed to attach for 24 hours. Cells were stimulated by addition of LPS (10 μg/ml) and IFN gamma (10 ng/ml) in the presence or absence of test article. The cells were then incubated for 24 hours at 37° C., after which time the media was removed and used for cytokine determination as described below.\nViability of mouse microglial cells after exposure to the test article was determined using a fluorescent viability dye, Cell Tracker Green. Cell Tracker Green was used at a working concentration of 5 μM in 1×HBSS. Cells were washed once with HBSS (200 μl/well) and 100 μl Cell Tracker Green was added to each well. Cells were then incubated at 37° C. for 30 minutes, after which time the Cell Tracker was removed and the cells were washed once with HBSS (200 μl/well). 100 pl fresh HBSS was added to each well and the plate was read on a Fluoroskan plate reader using an excitation wavelength of 485 nm and an emission wavelength of 538 nm.\n1. […]\n• The Costar EIA Hi-binding plate was coated with capture antibody at 4 μg/ml. […] Each well was filled to the top, dispensed, and any remaining buffer was removed by inverting the plate and gently blotting against clean paper towels. • Non-specific binding sites were blocked by adding 300 μl of Blocking Buffer to each well, and after sealing incubating for at least 1 hour at room temperature. • After washing the plate was now ready for the samples. […] 100 μl of this Substrate Solution mixture was added to each well and the plate was incubated in the dark for 20 minutes at room temperature. • 50 μl of Stop Solution was added to each well, mixing was ensured by gently tapping. • Each plate was read with the Spectramax once at 450 nm. […]"}}}
{"smiles": "Cc1c(C)c2c(c(CSCC(C)C(=O)N3CCCC3C(=O)O)c1O)CCC(C)(CCCC(C)CCCC(C)CCCC(C)C)O2", "note": "(centres unmarked) [1-{3-[6-Hydroxy-2,7,8-trimethyl-2-(4,8,12-trimethyl-tridecyl)-chroman-5-ylmethylsulfanyl]-2-methyl-propionyl}-pyrrolidine-2-carboxylic acid]", "values": [{"measurement": "EC50", "setting": "[1]", "result": "< 5", "unit": "µM"}, {"measurement": "EC50", "setting": "FRDA fibroblasts", "result": "0.01 to 6", "unit": "µM"}]}
{"smiles": "Cc1cc(C)nc(SCc2c(O)c(C)c(C)c3c2CCC(C)(C)O3)n1", "note": "[5-(4,6-Dimethyl-pyrimidin-2-ylsulfanylmethyl)-2,2,7,8-tetramethyl-chroman-6-ol]", "values": [{"measurement": "EC50", "setting": "[1]", "result": "< 5", "unit": "µM"}, {"measurement": "EC50", "setting": "[2]", "result": "≤ 20", "unit": "µM"}]}
{"smiles": "Cc1c(C)c2c(c(CSC3CCCC3)c1O)CCC(C)(C)O2", "note": "[5-Cyclopentylsulfanylmethyl-2,2,7,8-tetramethyl-chroman-6-ol]", "values": [{"measurement": "EC50", "setting": "[1]", "result": "< 5", "unit": "µM"}, {"measurement": "EC50", "setting": "FRDA fibroblasts", "result": "0.01 to 6", "unit": "µM"}]}
{"smiles": "CCCCCCSCc1c(O)c(C)c(C)c2c1CCC(C)(C)O2", "note": "[5-Hexylsulfanylmethyl-2,2,7,8-tetramethyl-chroman-6-ol]", "values": [{"measurement": "EC50", "setting": "[1]", "result": "< 5", "unit": "µM"}, {"measurement": "EC50", "setting": "FRDA fibroblasts", "result": "0.01 to 6", "unit": "µM"}]}
